Reference: US11337964B2, “Isoindoline derivative, pharmaceutical composition and use thereof” (Kangpu Biopharmaceuticals, Ltd., priority 2017, dated 2022)

Experiments:
Assay type in all cases: biochemical
Details in all cases: FAM-cAMP substrate, 30 minutes at room temperature
PDE4A1A = target: T1, PDE4A1A (Homo sapiens, UniProt P27815); assay: PDE4 activity inhibition assay, PDE4A1A
T1 construct: purchased BPS 60040
Procedure: (§1) The IC50 value of the inhibitory effect of the compound on PDE4A1A, PDE4B1 and PDE4D3 was tested.
(§2) Positive compound: Trequinsin (Sigma, Cat. No. T2057).
(§3) Equipment: Wallac Victor Multi-label counter (Perkin Elmer).
(§4) I. Preparing 1× reaction liquid and termination liquid;
(§5) II. PDE enzymatic reaction; • 1) The PDE was dissolved in 1× reaction solution to form 2× enzyme solution. • 2) FAM-cAMP was dissolved in 1× reaction solution to form 2× substrate solution. • 3) Echo 550 was used to transfer the corresponding volume of the compound in DMSO solution to the reaction plate. • 4) 2× enzyme solution was added into the corresponding well of the reaction plate and incubated with the compound solution at room temperature for 15 minutes. • 5) 2× substrate solution was added into the corresponding well of the reaction plate to initiate the reaction. • 6) Reaction plate was incubated at room temperature for 30 minutes and terminated by adding termination liquid, then incubated at room temperature for 60 minutes.
(§6) The inhibition rate was calculated by Excel; IC50 was calculated by GraphPad Prism.

PDE4B1 = target: T2, PDE4B1 (Homo sapiens, UniProt Q07343); assay: PDE4 activity inhibition assay, PDE4B1
T2 construct: purchased BPS 60041
T2 sequence (Q07343 whole entry): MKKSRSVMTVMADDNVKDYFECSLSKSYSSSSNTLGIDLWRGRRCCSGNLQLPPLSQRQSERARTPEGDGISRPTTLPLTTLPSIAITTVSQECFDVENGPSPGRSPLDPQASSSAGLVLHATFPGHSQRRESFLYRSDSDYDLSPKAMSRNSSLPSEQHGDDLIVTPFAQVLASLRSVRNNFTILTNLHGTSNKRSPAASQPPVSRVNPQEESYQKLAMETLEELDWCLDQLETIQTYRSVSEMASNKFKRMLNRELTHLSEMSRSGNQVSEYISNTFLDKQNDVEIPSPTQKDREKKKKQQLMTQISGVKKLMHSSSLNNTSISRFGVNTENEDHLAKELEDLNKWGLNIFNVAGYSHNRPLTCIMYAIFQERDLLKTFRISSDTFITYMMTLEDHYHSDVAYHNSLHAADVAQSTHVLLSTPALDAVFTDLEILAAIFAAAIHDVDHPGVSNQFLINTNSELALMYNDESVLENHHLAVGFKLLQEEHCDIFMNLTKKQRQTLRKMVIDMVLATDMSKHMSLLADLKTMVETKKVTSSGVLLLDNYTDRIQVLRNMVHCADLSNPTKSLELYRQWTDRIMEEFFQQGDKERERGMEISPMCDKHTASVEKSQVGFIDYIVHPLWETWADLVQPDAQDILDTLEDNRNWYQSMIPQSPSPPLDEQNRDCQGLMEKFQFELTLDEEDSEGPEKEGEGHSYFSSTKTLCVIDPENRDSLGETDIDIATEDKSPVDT
Procedure: as §1, §2, §3, §4, §5, §6

PDE4D3 = target: T3, PDE4D3 (Homo sapiens, UniProt Q08499); assay: PDE4 activity inhibition assay, PDE4D3
T3 construct: purchased BPS 60046
T3 sequence (Q08499 1-673 isoform Q08499-2): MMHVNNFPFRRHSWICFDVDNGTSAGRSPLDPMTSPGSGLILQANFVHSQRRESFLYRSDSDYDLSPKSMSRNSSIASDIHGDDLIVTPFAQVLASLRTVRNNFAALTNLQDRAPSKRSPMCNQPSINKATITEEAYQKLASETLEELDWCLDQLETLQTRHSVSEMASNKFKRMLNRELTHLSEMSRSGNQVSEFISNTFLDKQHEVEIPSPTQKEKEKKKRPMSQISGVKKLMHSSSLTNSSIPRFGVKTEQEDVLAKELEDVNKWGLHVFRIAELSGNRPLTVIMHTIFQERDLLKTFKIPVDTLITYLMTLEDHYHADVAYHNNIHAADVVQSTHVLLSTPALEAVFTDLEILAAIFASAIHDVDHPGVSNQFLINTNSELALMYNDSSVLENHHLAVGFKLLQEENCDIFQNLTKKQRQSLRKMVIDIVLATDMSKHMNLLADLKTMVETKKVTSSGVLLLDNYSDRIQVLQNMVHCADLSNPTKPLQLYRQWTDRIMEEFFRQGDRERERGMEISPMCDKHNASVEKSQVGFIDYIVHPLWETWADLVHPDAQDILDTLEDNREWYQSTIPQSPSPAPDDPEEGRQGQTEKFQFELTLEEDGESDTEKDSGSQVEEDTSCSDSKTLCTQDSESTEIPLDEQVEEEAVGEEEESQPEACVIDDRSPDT
Procedure: as §1, §2, §3, §4, §5, §6

T1 sequence (P27815 1-647 isoform P27815-4): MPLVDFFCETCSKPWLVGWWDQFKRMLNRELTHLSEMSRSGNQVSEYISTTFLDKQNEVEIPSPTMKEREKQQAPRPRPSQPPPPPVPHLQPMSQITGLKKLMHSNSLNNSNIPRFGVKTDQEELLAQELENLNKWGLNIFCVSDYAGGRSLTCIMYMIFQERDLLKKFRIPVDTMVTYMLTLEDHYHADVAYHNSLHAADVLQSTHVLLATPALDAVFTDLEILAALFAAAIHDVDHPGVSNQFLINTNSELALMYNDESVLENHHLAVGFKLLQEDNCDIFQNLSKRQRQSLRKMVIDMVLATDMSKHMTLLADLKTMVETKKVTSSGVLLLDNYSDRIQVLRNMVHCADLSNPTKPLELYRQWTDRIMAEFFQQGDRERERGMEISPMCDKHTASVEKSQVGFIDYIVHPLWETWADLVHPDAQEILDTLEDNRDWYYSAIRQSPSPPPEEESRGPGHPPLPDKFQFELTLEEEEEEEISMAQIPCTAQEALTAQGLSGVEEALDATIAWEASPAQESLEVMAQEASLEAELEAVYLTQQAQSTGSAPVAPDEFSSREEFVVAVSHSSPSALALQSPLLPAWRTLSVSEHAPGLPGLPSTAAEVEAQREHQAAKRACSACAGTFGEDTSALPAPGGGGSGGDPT

| IC50 (PDE4A1A) | IC50 (PDE4B1) | IC50 (PDE4D3) | SMILES |
| --- | --- | --- | --- |
| 0.6 nM | 1.6 nM | 0.4 nM | CCOc1nc(C(CS(C)(=O)=O)N2C(=O)c3c(Cl)ccc(NC(C)=O)c3C2=O)ccc1OC (stereo not drawn) [Compound 728, N-(7-chloro-2-(1-(6-ethoxy-5-methoxypyridin-2-yl)-2-(methylsulfonyl)ethyl)-1,3-dioxoisoindolin-4-yl)acetamide] |
| 0.8 nM | 2.4 nM | 1.1 nM | CCOc1nc([C@@H](CS(C)(=O)=O)N2C(=O)c3c(C#N)ccc(NC(C)=O)c3C2=O)ccc1OC [Compound 732, (S)—N-(7-cyano-2-(1-(6-ethoxy-5-methoxypyridin-2-yl)-2-(methylsulfonyl)ethyl)-1,3-dioxoisoindolin-4-yl)acetamide] |
| 5.6 nM | 17.8 nM | 13 nM | CCOc1nc([C@@H](CS(C)(=O)=O)N2C(=O)c3cc(C#N)cc(NC(C)=O)c3C2=O)ccc1OC [Compound 734, (S)—N-(6-cyano-2-(1-(6-ethoxy-5-methoxypyridin-2-yl)-2-(methylsulfonyl)ethyl)-1,3-dioxoisoindolin-4-yl)acetamide] |
| 51.8 nM | 136 nM | 35.9 nM | CCOc1nc(C(CS(C)(=O)=O)N2C(=O)c3cccc(NS(C)(=O)=O)c3C2=O)ccc1OC (stereo not drawn) [Compound 737, N-(2-(1-(6-ethoxy-5-methoxypyridin-2-yl)-2-(methylsulfonyl)ethyl)-1,3-dioxoisoindolin-4-yl)methanesulfonamide] |
| 14.5 nM | 36.3 nM | 10.9 nM | CCOc1nc(C(CS(C)(=O)=O)N2C(=O)c3cccc(NC(=O)CO)c3C2=O)ccc1OC (stereo not drawn) [Compound 739, N-(2-(1-(6-ethoxy-5-methoxypyridin-2-yl)-2-(methylsulfonyl)ethyl)-1,3-dioxoisoindolin-4-yl)-2-hydroxyacetamide] |
| 2.4 nM | 6.2 nM | 2.6 nM | CCOc1nc(C(CS(C)(=O)=O)N2C(=O)c3cccc(NC(=O)COCc4ccccc4)c3C2=O)ccc1OC (stereo not drawn) [Compound 742, 2-(benzyloxy)-N-(2-(1-(6-ethoxy-5-methoxypyridin-2-yl)-2-(methylsulfonyl)ethyl)-1,3-dioxoisoindolin-4-yl)acetamide] |
| 1.1 nM | 2.6 nM | 1.2 nM | CCOc1nc(C(CS(C)(=O)=O)N2C(=O)c3c(F)ccc(NC(=O)COC)c3C2=O)ccc1OC (stereo not drawn) [Compound 745, N-(2-(1-(6-ethoxy-5-methoxypyridin-2-yl)-2-(methylsulfonyl)ethyl)-7-fluoro-1,3-dioxoisoindolin-4-yl)-2-methoxyacetamide] |
| 2.8 nM | 7.9 nM | 3.3 nM | CCOc1nc(C(CS(C)(=O)=O)N2C(=O)c3cccc(NC(=O)COC)c3C2=O)ccc1OC (stereo not drawn) [Compound 748, N-(2-(1-(6-ethoxy-5-methoxypyridin-2-yl)-2-(methylsulfonyl)ethyl)-1,3-dioxoisoindolin-4-yl)-2-methoxyacetamide] |
| 5 nM | 9.9 nM | 3.1 nM | CCOc1nc(C(CS(C)(=O)=O)N2C(=O)c3c(F)ccc(NC(=O)CN(C)C)c3C2=O)ccc1OC (stereo not drawn) [Compound 751, 2-(dimethylamino)-N-(2-(1-(6-ethoxy-5-methoxypyridin-2-yl)-2-(methylsulfonyl)ethyl)-7-fluoro-1,3-dioxoisoindolin-4-yl)acetamide] |
| 10.6 nM | 21.9 nM | 8 nM | CCOc1nc(C(CS(C)(=O)=O)N2C(=O)c3cccc(NC(=O)CN(C)C)c3C2=O)ccc1OC (stereo not drawn) [Compound 754, 2-(dimethylamino)-N-(2-(1-(6-ethoxy-5-methoxypyridin-2-yl)-2-(methylsulfonyl)ethyl)-1,3-dioxoisoindolin-4-yl)acetamide] |
| 2.5 nM | 4.5 nM | 1.8 nM | CCOc1nc(C(CS(C)(=O)=O)N2C(=O)c3c(F)ccc(NC(=O)CC(C)C)c3C2=O)ccc1OC (stereo not drawn) [Compound 757, N-(2-(1-(6-ethoxy-5-methoxypyridin-2-yl)-2-(methylsulfonyl)ethyl)-7-fluoro-1,3-dioxoisoindolin-4-yl)-3-methylbutanamide] |

Second part, the compound before the results:

| SMILES | IC50 (PDE4A1A) | IC50 (PDE4B1) | IC50 (PDE4D3) |
| --- | --- | --- | --- |
| CCOc1cc([C@@H](CS(C)(=O)=O)N2C(=O)c3ccc(F)c(NC(C)=O)c3C2=O)ccc1OC [Compound 302, (S)—N-(2-(1-(3-ethoxy-4-methoxyphenyl)-2-(methylsulfonyl)ethyl)-5-fluoro-1,3-dioxoisoindolin-4-yl)acetamide] | 33 nM | 41 nM | 22 nM |
| CCOc1cc(C(CS(C)(=O)=O)N2C(=O)c3ccnc(NC(C)=O)c3C2=O)ccc1OC (stereo not drawn) [Compound 401, N-(2-(1-(3-ethoxy-4-methoxyphenyl)-2-(methylsulfonyl)ethyl)-1,3-dioxo-2,3-dihydro-1H-pyrrolo[3,4-c]pyridin-4-yl)acetamide] | 182 nM | 211 nM | 110 nM |
| CCOc1cc([C@@H](CS(C)(=O)=O)N2C(=O)c3cncc(NC(C)=O)c3C2=O)ccc1OC [Compound 502, (S)—N-(2-(1-(3-ethoxy-4-methoxyphenyl)-2-(methylsulfonyl)ethyl)-1,3-dioxo-2,3-dihydro-1H-pyrrolo[3,4-c]pyridin-7-yl)acetamide] | 206 nM | 513 nM | 107 nM |
| CCOc1cc(C(CS(C)(=O)=O)N2C(=O)c3nccc(NC(C)=O)c3C2=O)ccc1OC (stereo not drawn) [Compound 601, N-(6-(1-(3-ethoxy-4-methoxyphenyl)-2-(methylsulfonyl)ethyl)-5,7-dioxo-6,7-dihydro-5H-pyrrolo[3,4-b]pyridin-4-yl)acetamide] | 273 nM | 390 nM | 201 nM |
| CCOc1nc(C(CS(C)(=O)=O)N2C(=O)c3cccc(NC(C)=O)c3C2=O)ccc1OC (stereo not drawn) [Compound 701, N-(2-(1-(6-ethoxy-5-methoxypyridin-2-yl)-2-(methylsulfonyl)ethyl)-1,3-dioxoisoindolin-4-yl)acetamide] | 2.5 nM | 3.5 nM | 2.1 nM |
| CCOc1nc([C@H](CS(C)(=O)=O)N2C(=O)c3cccc(NC(C)=O)c3C2=O)ccc1OC [Compound 703, (R)—N-(2-(1-(6-ethoxy-5-methoxypyridin-2-yl)-2-(methylsulfonyl)ethyl)-1,3-dioxoisoindolin-4-yl)acetamide] | 30 nM | 55 nM | 20 nM |
| CCOc1nc([C@H](CS(C)(=O)=O)N2C(=O)c3c(F)ccc(NC(C)=O)c3C2=O)ccc1OC [Compound 706, (R)—N-(2-(1-(6-ethoxy-5-methoxypyridin-2-yl)-2-(methylsulfonyl)ethyl)-7-fluoro-1,3-dioxoisoindolin-4-yl)acetamide] | 6.5 nM | 18 nM | 4 nM |
| CCOc1nc([C@H](CS(C)(=O)=O)N2C(=O)c3cc(F)cc(NC(C)=O)c3C2=O)ccc1OC [Compound 709, (R)—N-(2-(1-(6-ethoxy-5-methoxypyridin-2-yl)-2-(methylsulfonyl)ethyl)-6-fluoro-1,3-dioxoisoindolin-4-yl)acetamide] | 17 nM | 32 nM | 11 nM |
| [2H]C([2H])([2H])Oc1ccc([C@@H](CS(C)(=O)=O)N2C(=O)c3cccc(NC(C)=O)c3C2=O)nc1OCC [Compound 711, (S)—N-(2-(1-(6-ethoxy-5-d3-methoxypyridin-2-yl)-2-(methylsulfonyl)ethyl)-1,3-dioxoisoindolin-4-yl)acetamide] | 1.1 nM | 5.1 nM | 2 nM |
| [2H]C([2H])([2H])Oc1ccc([C@H](CS(C)(=O)=O)N2C(=O)c3cccc(NC(C)=O)c3C2=O)nc1OCC [Compound 712, (R)—N-(2-(1-(6-ethoxy-5-d3-methoxypyridin-2-yl)-2-(methylsulfonyl)ethyl)-1,3-dioxoisoindolin-4-yl)acetamide] | 32.6 nM | 82.8 nM | 29 nM |
| [2H]C([2H])([2H])Oc1ccc([C@@H](CS(C)(=O)=O)N2C(=O)c3c(F)ccc(NC(C)=O)c3C2=O)nc1OCC [Compound 718, (S)—N-(2-(1-(6-ethoxy-5-d3-methoxypyridin-2-yl)-2-(methylsulfonyl)ethyl)-7-fluoro-1,3-dioxoisoindolin-4-yl)acetamide] | 0.9 nM | 3 nM | 0.7 nM |
| [2H]C([2H])([2H])Oc1ccc([C@H](CS(C)(=O)=O)N2C(=O)c3c(F)ccc(NC(C)=O)c3C2=O)nc1OCC [Compound 719, (R)—N-(2-(1-(6-ethoxy-5-d3-methoxypyridin-2-yl)-2-(methylsulfonyl)ethyl)-7-fluoro-1,3-dioxoisoindolin-4-yl)acetamide] | 15.3 nM | 57.8 nM | 15.4 nM |
| [2H]C([2H])([2H])Oc1ccc([C@@H](CS(C)(=O)=O)N2C(=O)c3cc(F)cc(NC(C)=O)c3C2=O)nc1OCC [Compound 724, (S)—N-(2-(1-(6-ethoxy-5-d3-methoxypyridin-2-yl)-2-(methylsulfonyl)ethyl)-6-fluoro-1,3-dioxoisoindolin-4-yl)acetamide] | 2.3 nM | 5.7 nM | 3.1 nM |
| [2H]C([2H])([2H])Oc1ccc([C@H](CS(C)(=O)=O)N2C(=O)c3cc(F)cc(NC(C)=O)c3C2=O)nc1OCC [Compound 725, (R)—N-(2-(1-(6-ethoxy-5-d3-methoxypyridin-2-yl)-2-(methylsulfonyl)ethyl)-6-fluoro-1,3-dioxoisoindolin-4-yl)acetamide] | 32.1 nM | 93 nM | 33.5 nM |
